Results published in patent US20230123334A1, “AMINO LIPID COMPOUND, PREPARATION METHOD THEREFOR, AND APPLICATION THEREOF” (SHENZHEN SHENXIN BIOTECHNOLOGY CO., LTD., priority 2020, published 2023).

Key:
Assay type in all cases: cell-based
MCF7 cells [1] = experiment: Transfection of MCF7 cell line, mRNA vectors; settings: 50 ng EGFP mRNA per well
Summary of the method: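 MCF7 cells in DMEM with fetal bovine serum were transfected with 50 ng EGFP mRNA per well. Read-out was the percentage of GFP-positive cells among total Hoechst-stained nuclei, with Lipofectamine2000 as positive control.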

Hela cells [2] = experiment: Transfection of Hela cell line, DNA vectors; settings: 75 ng plasmid DNA, GFP cells / total cells
Summary of the method: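 Amino lipid/DOPE liposomes in sodium acetate pH 5.6 were complexed with 75 ng psin-EGFP-IRES-Puro plasmid for 30 min at room temperature, then mixed with 3-5×10^4 Hela cells in DMEM/10% FBS at 37° C. Hoechst stain after 20-24 h, imaging after a further 20-24 h. Efficiency = GFP-positive cells / total nuclei.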

[3] = system: embryonic stem cells (hESC2); experiment: Screening as mRNA vectors in embryonic stem cells; settings: 50 ng EGFP mRNA per well
Summary of the method: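 EGFP mRNA (50 ng per well) transfected into hESC2 cells grown in mTeSR1; Lipofectamine Stem served as positive control. Read-out: GFP-fluorescent cells as percentage of total cells.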

cardiomyocytes [4] = experiment: Screening as DNA vectors in cardiomyocytes; set-up: concentration or dose not given beside the values; settings: method as Example 4
Summary of the method: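 hESC-derived cardiomyocytes in DMEM with 10% FBS were transfected with a GFP DNA vector; Lipofectamine Stem served as positive control. Read-out: percentage of GFP-positive cells relative to total cells counted by Hoechst nuclear stain.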

cardiomyocytes [5] = experiment: Screening as mRNA vectors in cardiomyocytes; settings: 50 ng EGFP mRNA per well
Summary of the method: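 Cardiomyocytes differentiated from hESC, in DMEM with 10% FBS, were transfected with 50 ng EGFP mRNA per well. The read-out was GFP-positive cells as a percentage of Hoechst-stained nuclei, with Lipofectamine Stem as positive control.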

HEK293 cells [6] = experiment: Preliminary screening as DNA vectors, GFP transfection of HEK293 cells; settings: HEK293 cells; lipid/DOPE liposome with 75 ng plasmid DNA (psin-EGFP-IRES-Puro); number of cells expressing GFP divided by total number of nuclei (Hoechst)
Summary of the method: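 First, amino lipid and DOPE were vortexed in sodium acetate buffer (pH 5.6) to form liposomes. Next, these were held with 75 ng EGFP plasmid at room temperature for 30 min. Finally, HEK293 cells were added, cultured at 37° C., Hoechst-stained, and GFP+/total nuclei scored by imaging.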

MCF7 cells [7] = experiment: Transfection of MCF7 cell line, DNA vectors; set-up: concentration or dose not given beside the values; settings: plasmid DNA, GFP cells / total cells
Summary of the method: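 MCF7 cells in DMEM with fetal bovine serum were transfected in 96-well format. Read-out was the percentage of GFP-fluorescent cells among total cells counted by Hoechst nuclear stain. Lipofectamine2000 served as positive control.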

Hela cells [8] = experiment: Transfection of Hela cell line, mRNA vectors; settings: 50 ng EGFP mRNA per well
Summary of the method: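 HeLa cells in DMEM with 10% FBS transfected with 50 ng EGFP mRNA per well. Readout is percentage of GFP-positive cells among total cells counted by Hoechst nuclear stain; Lipofectamine2000 served as positive control.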

HEK293 cells [9] = experiment: Preliminary screening as mRNA vectors, EGFP mRNA transfection of HEK293 cells; settings: HEK293 cells, 96-well plates, EGFP mRNA 50 ng per well; percentage of GFP fluorescent cells relative to total number of cells (Hoechst)
Summary of the method: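 Screening format: EGFP mRNA transfection (50 ng/well) into HEK293 in 10% FBS-supplemented DMEM. Percent green fluorescent cells, normalised to Hoechst nuclear count, gave the value; Lipofectamine2000 was the reference transfectant.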

[10] = system: embryonic stem cells (hESC2); experiment: Screening as DNA vectors in embryonic stem cells, flow cytometry; settings: 75 ng plasmid DNA, 48 hours after transfection, flow cytometer
Summary of the method: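 hESC2 cells in mTeSR1 on matrigel transfected with 75 ng pSin-EGFP-IRES-Puro complexed with amino lipid/DOPE liposomes formed in sodium acetate pH 5.6; 37 °C, 5% CO2. After 48 h, GFP-positive cells counted by flow cytometry (≥2000 cells), efficiency also expressed relative to Lipofectamine Stem.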

SMILES | Absolute mRNA transfection efficiency in MCF7 cells (MCF7 cells [1]) [%] | Absolute DNA transfection efficiency in Hela cells (Hela cells [2]) [%] | Absolute mRNA transfection efficiency in embryonic stem cells [3] [%] | Absolute DNA transfection efficiency in cardiomyocytes (cardiomyocytes [4]) [%] | Absolute mRNA transfection efficiency in cardiomyocytes (cardiomyocytes [5]) [%] | Absolute DNA transfection efficiency in HEK293 cells (HEK293 cells [6]) [%] | Absolute DNA transfection efficiency in MCF7 cells (MCF7 cells [7]) [%] | Absolute mRNA transfection efficiency in Hela cells (Hela cells [8]) [%] | Absolute mRNA transfection efficiency in HEK293 cells (HEK293 cells [9]) [%] | Absolute DNA transfection efficiency in embryonic stem cells [10] [%]
CCCCCCCCCCCCSc1nc(NCCN2CCCC2)nc(SCCCCCCCCC)n1 [Compound S9S12D3] | 6.5 | 2.4 | 21.4 | 2.7 | 65.7 | 4.9 | 3.0 | 2.4 | 5.3 | 5.3
CCCCCCCCCCCCSc1nc(NCCN2CCN(C)CC2)nc(SCCCCCCCCC)n1 [Compound S9S12D5] | 27.3 | 10.8 | 27.3 | 1.7 | 1.2 | 21.0 | 32.0 | 10.8 | 57.5 | 4.6
CCCCCCCCCCCCSc1nc(NCCCN(C)C)nc(SCCCCCCCCC)n1 [Compound S9S12D6] | 50.4 | 10.9 | 9.3 | 3.3 | 9.5 | 20.2 | 34.2 | 10.9 | 61.6 | 10.5
CCCCCCCCCCCCSc1nc(NCCCN2CCOCC2)nc(SCCCCCCCCC)n1 [Compound S9S12D8] | 12.6 | 15.8 | 1.7 | 5.8 | 0.9 | 30.4 | 7.7 | 15.8 | 13.8 | 11.1
CCCCCCCCCCCCSc1nc(NCCCN2CCN(C)CC2)nc(SCCCCCCCCC)n1 [Compound S9S12D9] | 5.1 | 19.6 | 20.6 | 5.9 | 69.3 | 39.3 | 33.8 | 19.6 | 60.9 | 7.6
CCCCCCCCCCCCSc1nc(NCC2CCN(C)CC2)nc(SCCCCCCCCC)n1 [Compound S9S12D10] | 40.9 | 8.9 | 25.4 | 2.9 | 3.8 | 17.9 | 46.0 | 8.9 | 82.9 | 14.0
CCCCCCCCCCCCCCSc1nc(NCCN2CCCC2)nc(SCCCCCCCCC)n1 [Compound S9S14D3] | 4.4 | 2.4 | 19.7 | 0.5 | 72.4 | 5.1 | 1.3 | 2.5 | 2.3 | 1.6
CCCCCCCCCCCCCCSc1nc(NCCN2CCN(C)CC2)nc(SCCCCCCCCC)n1 [Compound S9S14D5] | 2.1 | 7.3 | 22.5 | 4.6 | 0.6 | 14.6 | 17.9 | 7.32 | 32.3 | 0.7
CCCCCCCCCCCCCCSc1nc(NCCCN(C)C)nc(SCCCCCCCCC)n1 [Compound S9S14D6] | 12.2 | 9.6 | 1.7 | 10.5 | 8.5 | 19.2 | 44.4 | 9.6 | 80.0 | 2.0
CCCCCCCCCCCCCCSc1nc(NCCCN2CCOCC2)nc(SCCCCCCCCC)n1 [Compound S9S14D8] | 14.8 | 10.8 | 0.3 | 6.1 | 1.0 | 21.0 | 6.4 | 10.8 | 11.6 | 0.7
